pIC50: −log10 of the molar value.
Assays:
Format in all cases: biochemical
FGFR1 = molecular target: T1, FGFR1 (Homo sapiens, UniProt P11362); assay: FGFR Enzymatic Assay (FRET peptide phosphorylation), FGFR1; settings: FGFR1 0.02 nM, ATP 210 μM
T1 construct: purchased Millipore or Invitrogen
Procedure, shortened: (§1)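 Human FGFR1 (0.02 nM) and FGFR2 (0.01 nM) were pre-incubated with compound for 5-10 min in HEPES buffer pH 7.5, then reacted at 25 °C for 1 hr with 500 nM biotinylated peptide and ATP (FGFR1 210 μM; FGFR2 100 μM). Phosphopeptide was detected by Eu-PY20/APC-streptavidin TR-FRET after EDTA quench. IC50 came from variable-slope sigmoidal fits.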

FGFR2 = molecular target: T2, FGFR2 (Homo sapiens, UniProt P21802); assay: FGFR Enzymatic Assay (FRET peptide phosphorylation), FGFR2; settings: FGFR2 0.01 nM, ATP 100 μM
T2 construct: purchased Millipore or Invitrogen
Procedure, shortened: as §1

FGFR3 = molecular target: T3, FGFR3 (Homo sapiens, UniProt P22607); assay: FGFR Enzymatic Assay (FRET peptide phosphorylation), FGFR3; settings: ATP 140 μM, 25° C. for 1 hr
T3 construct: purchased Millipore
Procedure, shortened: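 FGFR3 in 50 mM HEPES pH 7.5, 10 mM […]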

Measured: pIC50

T2 sequence (P21802 22-821): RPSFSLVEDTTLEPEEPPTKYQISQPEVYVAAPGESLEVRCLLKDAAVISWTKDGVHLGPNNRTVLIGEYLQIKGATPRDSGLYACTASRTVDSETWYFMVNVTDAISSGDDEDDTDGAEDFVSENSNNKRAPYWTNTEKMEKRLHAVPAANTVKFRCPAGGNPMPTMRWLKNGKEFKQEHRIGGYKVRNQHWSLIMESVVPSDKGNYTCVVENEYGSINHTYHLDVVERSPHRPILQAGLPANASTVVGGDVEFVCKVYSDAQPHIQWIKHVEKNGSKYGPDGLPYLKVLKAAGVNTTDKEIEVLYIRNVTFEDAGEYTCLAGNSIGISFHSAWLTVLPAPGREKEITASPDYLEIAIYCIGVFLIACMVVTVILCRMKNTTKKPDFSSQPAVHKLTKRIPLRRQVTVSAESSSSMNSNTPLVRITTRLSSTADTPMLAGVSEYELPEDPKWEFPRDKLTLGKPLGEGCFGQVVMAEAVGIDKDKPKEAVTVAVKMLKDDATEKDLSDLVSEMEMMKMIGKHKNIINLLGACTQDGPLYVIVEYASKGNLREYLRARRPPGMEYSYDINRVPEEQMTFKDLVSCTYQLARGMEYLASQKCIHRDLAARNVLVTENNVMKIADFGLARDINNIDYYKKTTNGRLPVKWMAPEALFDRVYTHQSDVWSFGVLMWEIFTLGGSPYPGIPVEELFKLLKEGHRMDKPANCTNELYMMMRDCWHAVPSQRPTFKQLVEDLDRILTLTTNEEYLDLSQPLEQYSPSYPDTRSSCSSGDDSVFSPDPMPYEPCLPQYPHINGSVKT
T1 sequence (P11362 22-822): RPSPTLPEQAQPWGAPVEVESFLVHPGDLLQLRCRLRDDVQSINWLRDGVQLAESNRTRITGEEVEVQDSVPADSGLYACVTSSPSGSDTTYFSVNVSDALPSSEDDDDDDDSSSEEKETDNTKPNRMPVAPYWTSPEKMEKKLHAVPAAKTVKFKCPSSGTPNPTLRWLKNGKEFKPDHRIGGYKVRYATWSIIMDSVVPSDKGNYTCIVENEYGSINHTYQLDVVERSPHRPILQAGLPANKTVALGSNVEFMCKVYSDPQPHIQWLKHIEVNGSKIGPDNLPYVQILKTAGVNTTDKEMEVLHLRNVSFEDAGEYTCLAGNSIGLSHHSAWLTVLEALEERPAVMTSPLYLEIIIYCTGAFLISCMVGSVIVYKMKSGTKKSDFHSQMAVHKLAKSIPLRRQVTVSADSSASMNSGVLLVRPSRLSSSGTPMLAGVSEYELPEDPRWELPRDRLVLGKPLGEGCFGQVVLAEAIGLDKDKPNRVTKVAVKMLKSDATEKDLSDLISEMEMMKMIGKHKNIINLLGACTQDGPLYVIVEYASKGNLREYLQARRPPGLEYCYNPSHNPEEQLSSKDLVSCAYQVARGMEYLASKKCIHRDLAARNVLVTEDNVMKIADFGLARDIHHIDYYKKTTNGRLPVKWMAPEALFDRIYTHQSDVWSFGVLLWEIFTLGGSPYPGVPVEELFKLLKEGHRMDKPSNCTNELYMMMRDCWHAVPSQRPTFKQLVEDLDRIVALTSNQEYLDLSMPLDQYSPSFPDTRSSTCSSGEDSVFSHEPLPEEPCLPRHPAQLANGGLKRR
T3 sequence (P22607 23-806): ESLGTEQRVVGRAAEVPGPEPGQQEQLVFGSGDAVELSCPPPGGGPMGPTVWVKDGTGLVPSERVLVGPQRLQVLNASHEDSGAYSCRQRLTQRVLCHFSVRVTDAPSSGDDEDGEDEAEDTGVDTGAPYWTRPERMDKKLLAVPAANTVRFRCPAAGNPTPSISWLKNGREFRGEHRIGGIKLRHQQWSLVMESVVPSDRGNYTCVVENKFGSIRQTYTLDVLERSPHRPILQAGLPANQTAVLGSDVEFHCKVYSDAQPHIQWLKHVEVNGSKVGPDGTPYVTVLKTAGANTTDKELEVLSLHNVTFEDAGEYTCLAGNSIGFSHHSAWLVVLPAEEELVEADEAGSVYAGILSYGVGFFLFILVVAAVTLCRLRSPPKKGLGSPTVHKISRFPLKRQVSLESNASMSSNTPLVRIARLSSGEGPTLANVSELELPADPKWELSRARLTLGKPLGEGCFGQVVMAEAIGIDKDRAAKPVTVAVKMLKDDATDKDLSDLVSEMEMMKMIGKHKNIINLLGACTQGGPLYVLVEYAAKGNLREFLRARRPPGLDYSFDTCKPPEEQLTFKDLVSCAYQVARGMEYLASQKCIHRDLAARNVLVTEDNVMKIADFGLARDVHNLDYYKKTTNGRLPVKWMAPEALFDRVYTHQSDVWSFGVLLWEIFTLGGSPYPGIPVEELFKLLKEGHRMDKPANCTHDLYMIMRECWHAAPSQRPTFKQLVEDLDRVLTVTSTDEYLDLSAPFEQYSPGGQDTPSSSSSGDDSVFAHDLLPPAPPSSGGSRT

COc1cc(OC)c(F)c(-c2cc3[nH]nc(-c4ccc5c(c4)CN(CC(C)O)C5=O)c3cn2)c1F (stereo not drawn) [Example 64, 5-[6-(2,6-Difluoro-3,5-dimethoxyphenyl)-1H-pyrazolo[4,3-c]pyridin-3-yl]-2-(2-hydroxypropyl)isoindolin-1-one]
> 7.00: all assays above

COc1cc(OC)c(Cl)c(-c2cc3[nH]nc(/C=C/c4cnn(C)c4)c3cn2)c1Cl [Example 49, 6-(2,6-Dichloro-3,5-dimethoxyphenyl)-3-[(E)-2-(1-methyl-1H-pyrazol-4-yl)vinyl]-1H-pyrazolo[4,3-c]pyridine]
> 7.00: all assays above

COc1cc(OC)c(F)c(-c2ncc3c(-c4ccc5c(c4)CCC(C(=O)N(C)C)O5)n[nH]c3n2)c1F (stereo not drawn) [Example 6, 6-[6-(2,6-Difluoro-3,5-dimethoxyphenyl)-1H-pyrazolo[3,4-d]pyrimidin-3-yl]-N,N-dimethylchromane-2-carboxamide]
> 7.00: all assays above

COc1cc(OC)c(F)c(-c2cc3[nH]nc(-c4ccc5c(c4)CCNC5=O)c3cn2)c1F [Example 56, 6-[6-(2,6-Difluoro-3,5-dimethoxyphenyl)-1H-pyrazolo[4,3-c]pyridin-3-yl]-3,4-dihydroisoquinolin-1(2H)-one]
> 7.00: all assays above

COc1cc(OC)c(F)c(-c2cc3[nH]nc(-c4cc5c(cc4F)C(=O)N(C(C)C)C5)c3cn2)c1F [Example 65, 5-[6-(2,6-Difluoro-3,5-dimethoxyphenyl)-1H-pyrazolo[4,3-c]pyridin-3-yl]-6-fluoro-2-isopropylisoindolin-1-one]
> 7.00: all assays above

COc1cc(OC)c(F)c(-c2cc3[nH]nc(-c4ccc5c(c4)CN(CCN(C)C)C5=O)c3cn2)c1F [Example 67, 5-[6-(2,6-Difluoro-3,5-dimethoxyphenyl)-1H-pyrazolo[4,3-c]pyridin-3-yl]-2-[2-(dimethylamino)ethyl]isoindolin-1-one]
> 7.00: all assays above

COc1cc(OC)c(F)c(-c2ncc3c(-c4ccc5ncccc5c4)n[nH]c3n2)c1F [Example 94, 6-[6-(2,6-Difluoro-3,5-dimethoxyphenyl)-1H-pyrazolo[3,4-d]pyrimidin-3-yl]quinoline]
> 7.00: all assays above

COc1cc(OC)c(F)c(-c2cc3[nH]nc(-c4ccc5c(c4)CC(C(=O)N(C)C)O5)c3cn2)c1F (single isomer, unassigned) [Example 84, 5-[6-(2,6-Difluoro-3,5-dimethoxyphenyl)-1H-pyrazolo[4,3-c]pyridin-3-yl]-N,N-dimethyl-2,3-dihydro-1-benzofuran-2-carboxamide]
> 7.00: all assays above

COc1cc(OC)c(F)c(-c2ncc3c(-c4ccc5c(c4)CCNC5=O)n[nH]c3n2)c1F [Example 12, 6-[6-(2,6-Difluoro-3,5-dimethoxyphenyl)-1H-pyrazolo[3,4-d]pyrimidin-3-yl]-3,4-dihydroisoquinolin-1(2H)-one]
> 7.00: all assays above

COc1cc(OC)c(Cl)c(-c2ncc3c(-c4cnn(C(C)C#N)c4)n[nH]c3n2)c1Cl (stereo not drawn) [Example 73, 2-{4-[6-(2,6-Dichloro-3,5-dimethoxyphenyl)-1H-pyrazolo[3,4-d]pyrimidin-3-yl]-1H-pyrazol-1-yl}propanenitrile]
> 7.00: all assays above
